Source: the supplement of paper PMC10307832

How the values were obtained:
Test in all cases: relative viability (nuclei count vs DMSO), 5 days (fraction); higher = more cells survive
4EGI-1 + Luminespib = compound: O=C(O)C(Cc1ccccc1[N+](=O)[O-])=NNc1nc(-c2ccc(Cl)c(Cl)c2)cs1 (mixture of isomers) [4EGI-1] + CCNC(=O)c1noc(-c2cc(C(C)C)c(O)cc2O)c1-c1ccc(CN2CCOCC2)cc1 [Luminespib] (partner 0.01 µM)
How it was run: (§1)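 The day after seeding in 1536-well plates, lung cancer cell lines were treated by pin tool with a single drug, or with a fixed anchor-drug dose together with five library-drug doses (not always all listed) in √10 steps. After 5 days, a combined fix-and-stain solution (final 0.05% Triton X-100, 1% formaldehyde, 1 ug/ml Hoechst) was added. Nuclei counted on 4× images gave relative viability as treated counts over vehicle counts, reported as the median of duplicate plates.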

4EGI-1 + Bortezomib = compound: O=C(O)C(Cc1ccccc1[N+](=O)[O-])=NNc1nc(-c2ccc(Cl)c(Cl)c2)cs1 (mixture of isomers) [4EGI-1] + CC(C)C[C@H](NC(=O)[C@H](Cc1ccccc1)NC(=O)c1cnccn1)B(O)O [Bortezomib] (partner 0.002 µM)
How it was run: as §1

XMD8-85 + Crizotinib = compound: CN1CCN(CC1)C2=CC(=C(C=C2)NC3=NC=C4C(=N3)N(C5=CC=CC=C5C(=O)N4C)C)OC [XMD8-85] + C[C@@H](Oc1cc(-c2cnn(C3CCNCC3)c2)cnc1N)c1c(Cl)ccc(F)c1Cl [Crizotinib] (partner 1 µM)
How it was run: as §1

XMD8-85 + Linsitinib = compound: CN1CCN(CC1)C2=CC(=C(C=C2)NC3=NC=C4C(=N3)N(C5=CC=CC=C5C(=O)N4C)C)OC [XMD8-85] + C[C@]1(O)C[C@@H](c2nc(-c3ccc4ccc(-c5ccccc5)nc4c3)c3c(N)nccn32)C1 [Linsitinib] (partner 1 µM)
How it was run: as §1

NCI-H1792
relative viability (4EGI-1 + Luminespib; first compound 0.5 µM): 0.917 | relative viability (4EGI-1 + Luminespib; first compound 1.581 µM): 0.414 | relative viability (4EGI-1 + Luminespib; first compound 5 µM): 0.411 | relative viability (4EGI-1 + Luminespib; first compound 15.81 µM): 0.37 | relative viability (4EGI-1 + Luminespib; first compound 50 µM): 0.236 | relative viability (4EGI-1 + Bortezomib; first compound 0.5 µM): 0.916 | relative viability (4EGI-1 + Bortezomib; first compound 1.581 µM): 0.392 | relative viability (4EGI-1 + Bortezomib; first compound 5 µM): 0.933 | relative viability (4EGI-1 + Bortezomib; first compound 15.81 µM): 0.89 | relative viability (4EGI-1 + Bortezomib; first compound 50 µM): 0.904 | relative viability (XMD8-85 + Crizotinib; first compound 0.08 µM): 0.883 | relative viability (XMD8-85 + Crizotinib; first compound 0.253 µM): 0.822 | relative viability (XMD8-85 + Crizotinib; first compound 2.53 µM): 0.852 | relative viability (XMD8-85 + Crizotinib; first compound 8 µM): 0.905 | relative viability (XMD8-85 + Linsitinib; first compound 0.08 µM): 0.47 | relative viability (XMD8-85 + Linsitinib; first compound 0.253 µM): 0.521 | relative viability (XMD8-85 + Linsitinib; first compound 2.53 µM): 0.463 | relative viability (XMD8-85 + Linsitinib; first compound 8 µM): 0.556
